Results reported in PubChem BioAssay AID406 (SGCOxCompounds, 2006).

Each molecule was assayed against mRNA-capping enzyme (Homo sapiens) (UniProt O60942) (assay: RNGTT phosphatase activity inhibitors, biochemical, DiFMUP fluorescence, recombinant (AID 406)). Details: at 50 µM, stronger effect = higher value.
Sequence of mRNA-capping enzyme (Homo sapiens) (O60942 whole entry, looked up): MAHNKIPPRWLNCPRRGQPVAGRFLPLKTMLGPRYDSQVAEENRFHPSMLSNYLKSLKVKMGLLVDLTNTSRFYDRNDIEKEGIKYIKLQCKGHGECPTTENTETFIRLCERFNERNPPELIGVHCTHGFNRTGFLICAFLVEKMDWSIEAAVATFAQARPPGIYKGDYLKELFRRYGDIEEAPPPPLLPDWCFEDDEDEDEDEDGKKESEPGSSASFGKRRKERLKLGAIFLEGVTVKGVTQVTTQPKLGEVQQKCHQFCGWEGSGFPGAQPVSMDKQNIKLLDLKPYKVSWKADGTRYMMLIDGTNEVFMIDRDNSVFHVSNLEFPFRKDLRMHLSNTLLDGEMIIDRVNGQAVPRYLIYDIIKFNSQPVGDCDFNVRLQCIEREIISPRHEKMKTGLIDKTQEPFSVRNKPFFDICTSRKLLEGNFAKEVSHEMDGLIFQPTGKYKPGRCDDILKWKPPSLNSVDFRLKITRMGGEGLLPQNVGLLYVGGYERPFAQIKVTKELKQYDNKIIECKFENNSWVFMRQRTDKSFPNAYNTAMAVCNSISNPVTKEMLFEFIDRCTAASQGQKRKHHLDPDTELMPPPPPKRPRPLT
For `O=C(O)c1ccc([O-])cn1.OO.OO.[K+].[K+].[O]=[V]`, the inhibition was 47%.
In the case of `CC(=O)c1ccc2c(c1)C1C=CCC1C(C(=O)O)N2` (configuration not stated), the inhibition is reported as 41%.
`O=C([O-])c1ccccn1.OO.OO.[K+].[K+].[O]=[V]` gave an inhibition of 36%.
`OO.OO.[K+].[O]=[V].c1cnc2c(c1)ccc1cccnc12` showed an inhibition of 22%.
With `O=C(O)c1ccc(O)cn1.OO.[O]=[V]` the inhibition was 51%.
For `CC(C)(c1ccc(NS(=O)(=O)C(F)(F)F)cc1)c1ccc(C(C)(C)c2ccc(NS(=O)(=O)C(F)(F)F)cc2)cc1`, the inhibition was 37%.
`OO.OO.[K+].[O]=[V].c1ccc(-c2ccccn2)nc1` showed an inhibition of 41%.
In the case of `CN(N=O)c1ccc(O)c(O)c1`, the inhibition is reported as 33%.
Work on `O=C1NC(=S)S/C1=C\C=C\c1ccc([N+](=O)[O-])o1` yielded an inhibition of 60%.
`NC1=NC(=O)/C(=C/C=C/c2ccc([N+](=O)[O-])o2)S1` was tested, and the inhibition was 33%.
`c1ccc([C@H]2CN3CCSC3=N2)cc1` was tested, and the inhibition was 29%.
Work on `O=C1NC(=S)NC(=O)C1=C/C=C/c1ccco1` yielded an inhibition of 22%.
